According to US6239122A, “Method of treatment of nausea, vomiting, and other disorders using estrogens” (priority 2000, dated 2001):

Assays:
5-HT3 receptor [1] = molecular target: T1, 5-HT3 receptor (Mus musculus, UniProt P23979); test: Whole-cell patch clamp, co-application of estrogen with 5-HT (0.5 μM); open conformation, high affinity site; assay type: cell-based, mouse neuroblastoma×Chinese hamster brain cell line (NCB-20)
T1 construct: an immortal cell line that expresses 5-HT3 receptors at a high density; endogenous in cells; host or cells: NCB-20 cells (mouse neuroblastoma × Chinese hamster brain hybrid)
Procedure: I recorded membrane currents carried by 5-HT3 receptors under voltage-clamp from single cells using the whole-cell configuration of the patch clamp technique (Hamill, O. P., Marty, A., Neher, E., Sakmann, B. & Sakmann, F. J., 1981, Pfluegers Arch. 391:85-100). Recordings were performed at a holding potential of -60 mV. Ligands were applied to the cells using a gravity-feed rapid perfusion system.
When the agonist is bound to the receptor and the receptor is conducting current, the receptor is in an open conformation. […] Concentration-effect data from 21 cells were fitted with the Hill (logistic) equation.

5-HT3 receptor [2] = molecular target: T1, 5-HT3 receptor; test: Whole-cell patch clamp, estrogen applied before 5-HT (10 μM); closed conformation, low affinity site; assay type: cell-based, mouse neuroblastoma×Chinese hamster brain cell line (NCB-20)
Procedure: I used NCB-20 cells (mouse neuroblastoma×Chinese hamster brain cell line), an immortal cell line that expresses 5-HT3 receptors at a high density. Cells were grown in Dulbecco's modified Eagles medium containing 10% fetal bovine serum, 100 U/ml penicillin, 100 μg/ml streptomycin and 2 mM glutamine. Cells were incubated in 35 mm plates at 37 degrees C in a humidified 7% carbon dioxide atmosphere. […] I recorded membrane currents carried by 5-HT3 receptors under voltage-clamp from single cells using the whole-cell configuration of the patch clamp technique (Hamill, O. P., Marty, A., Neher, E., Sakmann, B. & Sakmann, F. J., 1981, Pfluegers Arch. 391:85-100). Recordings were performed at a holding potential of -60 mV. Ligands were applied to the cells using a gravity-feed rapid perfusion system.
This is also called the closed conformation of the receptor.

T1 sequence (P23979 24-489): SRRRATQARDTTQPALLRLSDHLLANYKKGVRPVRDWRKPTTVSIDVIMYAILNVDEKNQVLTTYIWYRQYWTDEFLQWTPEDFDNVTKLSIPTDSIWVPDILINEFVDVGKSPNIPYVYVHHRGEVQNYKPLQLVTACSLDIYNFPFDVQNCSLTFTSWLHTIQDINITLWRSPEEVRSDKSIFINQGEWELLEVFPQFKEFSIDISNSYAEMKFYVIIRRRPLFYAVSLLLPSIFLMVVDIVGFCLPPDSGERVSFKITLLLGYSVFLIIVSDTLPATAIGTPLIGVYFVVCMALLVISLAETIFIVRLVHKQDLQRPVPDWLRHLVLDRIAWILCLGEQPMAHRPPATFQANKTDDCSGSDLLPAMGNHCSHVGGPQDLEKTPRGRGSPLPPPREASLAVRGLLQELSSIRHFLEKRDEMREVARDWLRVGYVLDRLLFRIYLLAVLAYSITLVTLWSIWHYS

With `C[C@]12CC[C@@H]3c4ccc(O)cc4CC[C@H]3[C@@H]1C[C@@H](O)[C@@H]2O` [estriol] the IC50 (5-HT3 receptor [1]) was 22000 ± 8000 nM.
`C[C@]12CC[C@@H]3c4ccc(O)cc4CC[C@H]3[C@@H]1CCC2=O` [estrone, 3-hydroxyestra-1,3,5(10)-trien-17-one] was tested, and the IC50 (5-HT3 receptor [1]) was 1.5 nM and the IC50 (5-HT3 receptor [2]) was 300 ± 20 nM.
